Assay results: US8592475B2, “Inhibitors of Akt activity” (GlaxoSmithKline LLC, priority 2008, dated 2013)

Target: T1, full length AKT1 (Homo sapiens, UniProt P31749)
T1 construct: His tag (from vector pFastBacHTb) (N); made in house; host or cells: baculovirus; Sf9 / T. ni insect cells
Assay: AKT enzyme assay (substrate phosphorylation, SPA)
Type: biochemical
Conditions: in at least one experimental run; pIC50 = -log(IC50), IC50 in molar units; 10 nM activated AKT enzyme, 4 uM ATP; read-out: pIC50 against full length AKT1 (converted)
Text: Cloning of Full-length Human (FL) AKT1:
Full-length human AKT1 gene was amplified by PCR from a plasmid containing myristylated-AKT1-ER (gift from Robert T. Abraham, Duke University under MTA, described in Klippel et al. in Molecular and Cellular Biology 1998 Volume 18 p. 5699) using the 5′ primer: SEQ.ID NO: 2, 5′ […] 3′ and the 3′ primer: SEQ.ID NO: 3, […] 3′. The 5′ primer included a BamHI site and the 3′ primer included an XhoI site for cloning purposes. The resultant PCR product was subcloned in pcDNA3 as a BamHI/XhoI fragment. A mutation in the sequence (TGC) coding for a Cysteine^25 was converted to the wild-type AKT1 sequence (CGC) coding for an Arginine^25 by site-directed mutagenesis using the QuikChange® Site Directed Mutagenesis Kit (Stratagene). […] For expression/purification purposes, AKT1 was isolated as a BamHI/XhoI fragment and cloned into the BamHI/XhoI sites of pFastbacHTb (Invitrogen).
Expression of FL Human AKT1:
Expression was done using the BAC-to-BAC Baculovirus Expression System from Invitrogen (catalog #10359-016). Briefly 1) the cDNA was transferred from the FastBac vector into bacmid DNA, 2) the bacmid DNA was isolated and used to transfect Sf9 insect cells, 3) the virus was produced in Sf9 cells, 4) T. ni cells were infected with this virus and sent for purification.
Purification of FL Human AKT1:
For the purification of full-length AKT1, 130 g sf9 cells (batch #41646WO2) were resuspended in lysis buffer (buffer A, 1 L, pH 7.5) containing 25 mM HEPES, 100 mM NaCl, and 20 mM imidazole. The cell lysis was carried out by Avestin (2 passes at 15K-20K psi). Cell debris was removed by centrifuging at 16K rpm for 1 hour and the supernatant was batch bound to 10 ml Nickel Sepharose HP beads at 4 C for over night. The beads were then transferred to column and the bound material was eluted with buffer B (25 mM HEPES, 100 mM NaCl, 300 mM imidazole, pH 7.5). AKT eluting fractions were pooled and diluted 3 fold using buffer C (25 mM HEPES, 5 mM DTT; pH 7.5). The sample was filtered and chromatographed over a 10 mL Q-HP column pre-equilibrated with buffer C at 2 mL/min.
The Q-HP column was washed with 3 column volume (CV) of buffer C, then step eluted with 5 CV 10% D, 5 CV 20% D, 5 CV 30% D, 5 CV 50% D and 5 CV of 100% D; where buffer D is 25 mM HEPES, 1000 mM NaCl, 5 mM DTT; pH 7.5. 5 mL fractions collected. AKT containing fractions were pooled and concentrated to 5 ml. The protein was next loaded to a 120 ml Superdex 75 sizing column that was pre-equilibrated with 25 mM HEPES, 200 mM NaCl, 5 mM DTT; pH 7.5. 2.5 mL fractions were collected.
AKT 1 eluting fractions were pooled, aliquoted (1 ml) and stored at −80 C. Mass spec and SDS-PAGE analysis were used to confirm purity and identity of the purified full-length AKT1.
Compounds of the present invention are tested for AKT 1, 2, and 3 protein serine kinase inhibitory activity in substrate phosphorylation assays. This assay examines the ability of small molecule organic compounds to inhibit the serine phosphorylation of a peptide substrate. The substrate phosphorylation assays use the catalytic domains of AKT 1, 2, or 3. AKT 1, 2 and 3 are also commercially available from Upstate USA, Inc. The method measures the ability of the isolated enzyme to catalyze the transfer of the gamma-phosphate from ATP onto the serine residue of a biotinylated synthetic peptide SEQ. ID NO: 5 (Biotin-ahx-ARKRERAYSFGHHA-amide). Substrate phosphorylation is detected by the following procedure: […]

T1 sequence (P31749 whole entry): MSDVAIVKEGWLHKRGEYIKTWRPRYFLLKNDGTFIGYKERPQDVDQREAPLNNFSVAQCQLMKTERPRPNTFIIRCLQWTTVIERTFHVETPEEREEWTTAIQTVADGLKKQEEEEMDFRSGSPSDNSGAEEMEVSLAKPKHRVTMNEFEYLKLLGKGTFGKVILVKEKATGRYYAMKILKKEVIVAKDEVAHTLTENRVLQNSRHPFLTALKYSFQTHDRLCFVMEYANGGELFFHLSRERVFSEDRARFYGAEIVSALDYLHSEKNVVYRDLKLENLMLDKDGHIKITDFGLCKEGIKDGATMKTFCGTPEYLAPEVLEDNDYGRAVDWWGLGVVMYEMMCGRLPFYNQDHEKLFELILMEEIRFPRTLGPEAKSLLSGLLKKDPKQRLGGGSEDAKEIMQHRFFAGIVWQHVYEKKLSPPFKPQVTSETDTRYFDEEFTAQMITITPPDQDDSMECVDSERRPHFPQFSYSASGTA

## Cn1nccc1-c1c(Cl)sc(NC(=O)C(CN)c2ccccc2)c1Cl (centres unmarked) [Example 1, 3-amino-N-[3,5-dichloro-4-(1-methyl-1H-pyrazol-5-yl)-2-thienyl]-2-phenylpropanamide]
  IC50: 158 nM

## Cn1ncc(Cl)c1-c1cc(NC(=O)[C@@H](CN)Cc2ccccc2)sc1Cl [Example 5, (2R)-3-amino-N-[5-chloro-4-(4-chloro-1-methyl-1H-pyrazol-5-yl)-2-thienyl]-2-(phenylmethyl)propanamide]
  IC50: 10 nM

## Cn1ncc(Cl)c1-c1cc(NC(=O)[C@H](CN)Cc2ccc(F)c(F)c2)sc1Cl [Example 7, (2S)-3-amino-N-[5-chloro-4-(4-chloro-1-methyl-1H-pyrazol-5-yl)-2-thienyl]-2-[(3,4-difluorophenyl)methyl]propanamide]
  IC50: 1.58 nM

## Cn1ncc(Cl)c1-c1cc(NC(=O)[C@@H](CN)Cc2ccccc2F)sc1Cl [Example 10, (2R)-3-amino-N-[5-chloro-4-(4-chloro-1-methyl-1H-pyrazol-5-yl)-2-thienyl]-2-[(2-fluorophenyl)methyl]propanamide]
  IC50: 5.01 nM

## Cn1ncc(Cl)c1-c1cc(NC(=O)[C@H](CN)Cc2cccc(F)c2)sc1Cl [Example 13, (2S)-3-amino-N-[5-chloro-4-(4-chloro-1-methyl-1H-pyrazol-5-yl)-2-thienyl]-2-[(3-fluorophenyl)methyl]propanamide]
  IC50: 2.51 nM
